Assay results published in the NIST ThermoML archive (doi:10.1016/j.jct.2018.12.009).

Assay: molar heat capacity at constant volume
Details: Mass density=329.2 kg/m3

CC(C)O [propan-2-ol]
molar heat capacity at constant volume [J/K/mol]
Details | Fluid (supercritical or subcritical phases) | Liquid
314.29 K | 177.46 | –
314.52 K | 182.81 | –
314.8 K | 184.67 | –
315.05 K | 181.49 | –
315.3 K | 177.88 | –
315.42 K | 176.26 | –
315.61 K | 174.88 | –
315.8 K | 178.6 | –
341.91 K | 203.12 | –
342.08 K | 202.22 | –
342.2 K | 203.54 | –
342.32 K | 207.27 | –
342.49 K | 201.32 | –
342.67 K | 203.72 | –
342.79 K | 202.76 | –
342.91 K | 201.62 | –
343.03 K | 204.08 | –
369.05 K | 225.9 | –
369.16 K | 220.01 | –
369.28 K | 231.31 | –
369.39 K | 222.83 | –
369.5 K | 225.96 | –
369.67 K | 223.55 | –
369.84 K | 221.75 | –
369.96 K | 221.03 | –
370.07 K | 219.47 | –
391.32 K | 243.38 | –
391.53 K | 248.85 | –
391.54 K | 243.44 | –
391.65 K | 246.93 | –
391.76 K | 235.69 | –
391.87 K | 241.16 | –
391.98 K | 242.54 | –
392.09 K | 244.11 | –
392.2 K | 243.2 | –
416.55 K | 258.83 | –
416.65 K | 260.09 | –
416.76 K | 252.52 | –
416.86 K | 257.99 | –
416.97 K | 255.76 | –
417.08 K | 261.47 | –
417.18 K | 252.94 | –
417.29 K | 253.84 | –
417.4 K | 259.73 | –
417.5 K | 261.17 | –
442.12 K | 262.92 | –
442.23 K | 265.86 | –
442.33 K | 272.53 | –
442.43 K | 265.68 | –
442.54 K | 266.76 | –
442.64 K | 267.6 | –
442.74 K | 270.13 | –
442.85 K | 265.86 | –
463.48 K | 270.31 | –
463.58 K | 271.63 | –
463.78 K | 270.31 | –
463.83 K | 274.63 | –
463.97 K | 279.44 | –
464.18 K | 278.72 | –
464.27 K | 280.16 | –
464.42 K | 278.24 | –
464.97 K | 277.34 | –
465.27 K | 272.77 | –
465.34 K | 278.54 | –
482.51 K | 288.1 | –
482.6 K | 289.9 | –
482.7 K | 288.46 | –
482.8 K | 287.73 | –
482.89 K | 288.34 | –
482.99 K | 292 | –
483.09 K | 287.19 | –
483.18 K | 291.64 | –
500.85 K | 316.94 | –
500.95 K | 311.35 | –
501.04 K | 310.87 | –
501.14 K | 313.94 | –
501.23 K | 314.06 | –
501.33 K | 310.75 | –
501.42 K | 316.76 | –
501.53 K | 318.08 | –
501.62 K | 320.49 | –
501.81 K | 316.64 | –
501.9 K | 317.06 | –
503.92 K | 322.05 | –
504.02 K | 325.72 | –
504.11 K | 323.31 | –
504.31 K | 318.86 | –
504.5 K | 325.72 | –
504.59 K | 319.65 | –
504.98 K | 328.36 | –
505.08 K | 326.92 | –
505.27 K | 325.96 | –
505.37 K | 325.35 | –
506.43 K | 328.06 | –
506.53 K | 330.64 | –
506.62 K | 335.93 | –
506.72 K | 332.69 | –
506.82 K | 332.27 | –
506.97 K | 330.22 | –
507.11 K | 342.54 | –
507.2 K | 339.6 | –
507.3 K | 339.42 | –
507.4 K | 335.93 | –
507.5 K | 343.02 | –
507.59 K | 338.94 | –
507.69 K | 354.86 | –
507.79 K | 347.95 | –
507.89 K | 352.76 | –
508.04 K | 358.17 | –
508.16 K | 363.76 | 218.14
508.18 K | – | 208.53
508.28 K | – | 195.91
508.37 K | – | 187.8
508.47 K | – | 185.69
508.57 K | – | 186.9
508.67 K | – | 192.91
508.76 K | – | 186.9
509.35 K | – | 179.56
509.45 K | – | 180.16
509.55 K | – | 178.84
509.64 K | – | 179.98
509.79 K | – | 177.46
509.99 K | – | 177.28
510.14 K | – | 178.12
510.23 K | – | 177.94
510.33 K | – | 176.68
510.48 K | – | 178.6
516.9 K | – | 176.74
516.99 K | – | 176.8
517.08 K | – | 176.8
517.27 K | – | 172.17
521.87 K | – | 173.13
521.96 K | – | 168.57
522.14 K | – | 173.19
522.33 K | – | 168.63
522.42 K | – | 171.63
522.51 K | – | 173.85
522.6 K | – | 175.18
530.01 K | – | 168.39
532.04 K | – | 168.27
535.11 K | – | 168.33
540.06 K | – | 168.39
545.13 K | – | 168.63
560.04 K | – | 169.77
570.09 K | – | 173.85
580.16 K | – | 174.22
590.07 K | – | 176.38
600.1 K | – | 178.6
